Assay results published in patent US20050197343A1, “Utilization of heteroarene carboxamide as dopamine-d3 ligands for the treatment of cns diseases” (priority 2002, published 2005).

What was measured:
[1] = target: T1, D3 receptor (Homo sapiens, UniProt P35462); experiment: mitogenesis assay (intrinsic activity); format: cell-based
Source text: D3 ligands may show agonistic, antagonistic or partial-agonistic activity on the D3 receptor. The respective intrinsic activities of the compounds of the invention may be measured in mitogenesis assays as described in literature (Hübner, H. et al. J. Med. Chem. 2000, 43, 4563-4569, and Löber, S. Bioorg. Med. Chem. Lett. 2002, 12.17, 2377-2380). Depending on the pathophysiology of the underlying disease, a stronger agonistic, stronger antagonistic or partial-agonistic activity may be desirable. The present invention therefore permits an excellent fine-tuning of the desired activity.
Tests to determine the intrinsic activity of the compounds of the examples were carried out in a mitogenesis assay as described in literature (Hübner, H. et al. J. Med. Chem. 2000, 43, 4563-4569; Löber, S. Bioorg. Med. Chem. Lett. 2002, 12.17, 2377-2380).

[2] = target: α1 receptors; experiment: competitive experiment with the α1 selective radio ligand [3H]Prazosin; details: read-out: Ki values α1 (footnote d); pα1; competitive experiment with [3H]Prazosin
[3] = target: T1, D3 receptor; experiment: radio ligand binding assay, CHO cell membrane homogenates, [3H]Spiperon, D3; set-up: expressed in transfected cells; host or cells: CHO cells (membrane homogenates); details: for Ki: hD3, average of 2-9 experiments in triplicate, read-out: Ki-values D3
Protocol: (§1) The biological activities of the compounds of the invention were determined in radio ligand binding assays.

[4] = target: T2, D1 receptor (Sus scrofa, UniProt P50130); experiment: radio ligand binding assay, D1 receptor, pig striatum membrane homogenates, [3H]SCH 23390; details: pD1; average of 2-9 experiments in triplicate
T2 construct: native membrane homogenates obtained from the striatum of a pig; from tissue; host or cells: pig striatum
T2 sequence (P50130 whole entry): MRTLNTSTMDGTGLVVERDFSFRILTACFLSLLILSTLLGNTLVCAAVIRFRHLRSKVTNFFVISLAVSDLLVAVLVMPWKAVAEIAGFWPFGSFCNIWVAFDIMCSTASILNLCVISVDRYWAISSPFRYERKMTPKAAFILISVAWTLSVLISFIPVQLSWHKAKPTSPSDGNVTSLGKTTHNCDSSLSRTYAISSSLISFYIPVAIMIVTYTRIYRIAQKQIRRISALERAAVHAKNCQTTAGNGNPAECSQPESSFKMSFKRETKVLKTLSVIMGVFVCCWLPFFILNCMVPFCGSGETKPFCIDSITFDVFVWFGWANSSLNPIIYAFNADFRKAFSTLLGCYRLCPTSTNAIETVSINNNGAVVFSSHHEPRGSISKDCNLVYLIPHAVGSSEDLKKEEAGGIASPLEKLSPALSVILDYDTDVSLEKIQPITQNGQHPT
Protocol: as §1

[5] = target: T3, human D2long receptor (Homo sapiens, UniProt P14416); experiment: radio ligand binding assay, CHO cell membrane homogenates, [3H]Spiperon, D2long; details: hD2long; average of 2-9 experiments in triplicate
T3 construct: expressed in transfected cells; host or cells: CHO cells (membrane homogenates)
T3 sequence (P14416 whole entry): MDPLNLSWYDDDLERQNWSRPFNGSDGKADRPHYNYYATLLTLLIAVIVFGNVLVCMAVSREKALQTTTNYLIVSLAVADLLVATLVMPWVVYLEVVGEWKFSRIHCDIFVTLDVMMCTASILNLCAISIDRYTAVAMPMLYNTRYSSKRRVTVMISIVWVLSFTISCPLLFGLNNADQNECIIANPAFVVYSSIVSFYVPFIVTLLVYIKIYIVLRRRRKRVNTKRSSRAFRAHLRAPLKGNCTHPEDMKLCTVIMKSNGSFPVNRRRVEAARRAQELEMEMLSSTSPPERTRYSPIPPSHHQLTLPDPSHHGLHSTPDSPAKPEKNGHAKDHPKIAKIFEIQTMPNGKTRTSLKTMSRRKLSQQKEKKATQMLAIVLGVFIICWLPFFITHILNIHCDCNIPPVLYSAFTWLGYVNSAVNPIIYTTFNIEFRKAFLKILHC
Protocol: as §1

[6] = target: T4, human D2short receptor (Homo sapiens, UniProt P14416); experiment: radio ligand binding assay, CHO cell membrane homogenates, [3H]Spiperon, D2short; details: hD2short; average of 2-9 experiments in triplicate
T4 construct: expressed in transfected cells; host or cells: CHO cells (membrane homogenates)
T4 sequence (P14416 1-414 isoform P14416-2): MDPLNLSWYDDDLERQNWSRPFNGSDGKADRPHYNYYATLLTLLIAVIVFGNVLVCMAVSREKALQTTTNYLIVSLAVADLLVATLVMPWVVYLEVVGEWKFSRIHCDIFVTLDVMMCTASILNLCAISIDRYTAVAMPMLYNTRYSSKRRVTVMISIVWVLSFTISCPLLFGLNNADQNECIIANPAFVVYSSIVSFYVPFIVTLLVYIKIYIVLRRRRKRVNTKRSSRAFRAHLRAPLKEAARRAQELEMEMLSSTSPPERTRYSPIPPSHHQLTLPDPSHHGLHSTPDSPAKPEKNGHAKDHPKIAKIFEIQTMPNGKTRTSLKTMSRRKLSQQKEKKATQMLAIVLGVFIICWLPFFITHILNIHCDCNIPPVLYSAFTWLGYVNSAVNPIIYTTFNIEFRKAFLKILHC
Protocol: as §1

[7] = target: T5, human D4.4 receptor (Homo sapiens, UniProt P21917); experiment: radio ligand binding assay, CHO cell membrane homogenates, [3H]Spiperon, D4.4; details: hD4.4; average of 2-9 experiments in triplicate
T5 construct: expressed in transfected cells; host or cells: CHO cells (membrane homogenates)
T5 sequence (P21917 1-419): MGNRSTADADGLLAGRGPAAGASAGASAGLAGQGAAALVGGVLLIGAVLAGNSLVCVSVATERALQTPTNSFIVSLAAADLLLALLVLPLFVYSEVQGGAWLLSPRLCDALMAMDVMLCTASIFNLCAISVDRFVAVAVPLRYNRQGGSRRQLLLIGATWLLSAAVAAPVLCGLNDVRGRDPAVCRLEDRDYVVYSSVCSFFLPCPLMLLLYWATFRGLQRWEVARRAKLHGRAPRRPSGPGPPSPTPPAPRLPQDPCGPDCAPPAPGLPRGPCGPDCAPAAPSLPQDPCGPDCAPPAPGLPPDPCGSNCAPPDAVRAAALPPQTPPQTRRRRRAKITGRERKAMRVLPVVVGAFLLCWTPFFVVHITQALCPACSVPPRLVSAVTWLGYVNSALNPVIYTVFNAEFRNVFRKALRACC
Protocol: as §1

[8] = target: T6, serotonin receptor 5-HT2 (Sus scrofa, UniProt P50129); experiment: radio ligand binding, pig cortex membrane preparations, [3H]Ketanserin with 10 μM Prazosin; details: p5-HT2; simultaneous incubation with 10 μM of Prazosin
T6 construct: cortex membrane preparations of a pig; from tissue; host or cells: pig cortex
T6 sequence (P50129 whole entry): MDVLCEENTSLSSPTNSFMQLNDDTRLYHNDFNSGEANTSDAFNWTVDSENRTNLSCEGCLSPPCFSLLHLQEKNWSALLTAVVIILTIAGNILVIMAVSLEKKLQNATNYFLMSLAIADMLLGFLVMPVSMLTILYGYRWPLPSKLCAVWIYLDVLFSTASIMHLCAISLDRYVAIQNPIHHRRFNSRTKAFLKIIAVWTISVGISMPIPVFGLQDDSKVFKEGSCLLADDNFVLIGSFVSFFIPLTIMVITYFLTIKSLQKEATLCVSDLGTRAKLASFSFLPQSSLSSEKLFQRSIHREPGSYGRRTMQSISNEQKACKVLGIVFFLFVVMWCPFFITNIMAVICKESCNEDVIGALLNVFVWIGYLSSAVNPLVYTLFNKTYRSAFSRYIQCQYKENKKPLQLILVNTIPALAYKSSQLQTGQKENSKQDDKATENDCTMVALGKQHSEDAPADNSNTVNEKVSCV

[9] = target: T7, serotonin receptor 5-HT1A (Sus scrofa, UniProt A0A4X1UTF5); experiment: radio ligand binding, pig cortex membrane preparations, [3H]8-OH-DPAT; details: read-out: Ki values 5-HT1A; p5-HT1A; [3H]8-OH-DPAT; average of 2 to 6 experiments
T7 sequence (A0A4X1UTF5 1-422): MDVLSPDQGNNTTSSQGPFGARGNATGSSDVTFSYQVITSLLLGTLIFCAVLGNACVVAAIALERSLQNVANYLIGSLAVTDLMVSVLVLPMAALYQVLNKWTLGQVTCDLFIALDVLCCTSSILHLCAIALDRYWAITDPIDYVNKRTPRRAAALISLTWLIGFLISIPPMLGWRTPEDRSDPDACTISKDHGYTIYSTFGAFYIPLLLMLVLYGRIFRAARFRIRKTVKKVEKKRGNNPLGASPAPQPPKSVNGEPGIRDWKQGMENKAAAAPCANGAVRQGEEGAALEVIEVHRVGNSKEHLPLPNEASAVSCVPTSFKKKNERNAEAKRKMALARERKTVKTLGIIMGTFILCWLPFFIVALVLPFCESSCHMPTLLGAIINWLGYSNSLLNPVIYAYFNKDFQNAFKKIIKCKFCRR

T1 sequence (P35462 whole entry): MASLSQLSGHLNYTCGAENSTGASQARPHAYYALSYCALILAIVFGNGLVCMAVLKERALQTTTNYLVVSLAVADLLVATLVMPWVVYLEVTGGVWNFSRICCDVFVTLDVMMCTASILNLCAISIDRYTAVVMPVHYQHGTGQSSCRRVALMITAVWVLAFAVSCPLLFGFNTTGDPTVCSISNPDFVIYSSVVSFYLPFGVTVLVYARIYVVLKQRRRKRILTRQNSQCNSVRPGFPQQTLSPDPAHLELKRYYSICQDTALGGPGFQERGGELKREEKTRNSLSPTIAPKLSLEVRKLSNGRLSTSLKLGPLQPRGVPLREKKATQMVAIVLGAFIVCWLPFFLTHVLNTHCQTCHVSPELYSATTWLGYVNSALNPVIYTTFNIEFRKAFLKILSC

| SMILES | EC50 ([1]; curve calculation of the concentration-activity test) [nM] | partial agonistic activity, % of the maximum receptor stimulation ([1]; maximum triggered by the full agonist Quinpirol as reference) [%] | Ki [2] [nM] | Ki [3] [nM] | Ki [4] [nM] | Ki [5] [nM] | Ki [6] [nM] | Ki [7] [nM] | Ki [8] [nM] | Ki [9] [nM] | D3 selectivity D2long/D3 ([3]; ratio of Ki values) | D3 selectivity D2short/D3 ([3]; ratio of Ki values) | D3 selectivity D4.4/D3 ([3]; ratio of Ki values) |
| --- | --- | --- | --- | --- | --- | --- | --- | --- | --- | --- | --- | --- | --- |
| COc1ccccc1N1CCN(CCCCNC(=O)c2cc3ccccc3s2)CC1 [Example 1, N-4-(4-(2-methoxyphenyl)piperazine-1-yl)butyl-2-benzo[b]thiophenylcarbamide] | 0.38 | 49 | 6.4 | 0.23 to 0.57 |  |  |  |  |  |  |  |  |  |
| O=C(NCCCCN1CCN(c2cccc(Cl)c2Cl)CC1)c1cc2ccccc2[te]1 [Example 9, N-4-(4-(2,3-dichlorophenyl)piperazine-1-yl)butyl-2-benzo[b]tellurophenylcarbamide] |  |  | 100 | 0.55 | 1400 | 91 | 48 | 150 | 730 | 130 | 170 | 87 | 270 |
